From US9066960B2, “Use of the effective fraction of alkaloids from mulberry twig in preparing hypoglycemic agents” (INSTITUTE OF MATARIA MEDICA, CHINESE ACADEMY OF MEDICAL …, priority 2006, dated 2015)

Tested on: α-glucosidase
Assay: α-glucosidase inhibitor activity
Type: biochemical

With `OCC1NCC(O)C(O)C1O` (stereo not shown) [1-deoxynojirimycin] as the molecule, how does the “Activity among the alkaloids of the effective fraction” value read?
Its value is “the activity is also the highest”.
